# In US11136317B2, “NADPH oxidase 4 inhibitors” (ACTELION PHARMACEUTICALS LTD, priority 2015, dated 2021):
# Target: T1, human NOX4 (Homo sapiens, UniProt Q9NPH5)
# T1 construct: The full-length human NOX4 (NM_016931.3) transcript was cloned; expressed in transfected cells
# T1 sequence (Q9NPH5 1-578): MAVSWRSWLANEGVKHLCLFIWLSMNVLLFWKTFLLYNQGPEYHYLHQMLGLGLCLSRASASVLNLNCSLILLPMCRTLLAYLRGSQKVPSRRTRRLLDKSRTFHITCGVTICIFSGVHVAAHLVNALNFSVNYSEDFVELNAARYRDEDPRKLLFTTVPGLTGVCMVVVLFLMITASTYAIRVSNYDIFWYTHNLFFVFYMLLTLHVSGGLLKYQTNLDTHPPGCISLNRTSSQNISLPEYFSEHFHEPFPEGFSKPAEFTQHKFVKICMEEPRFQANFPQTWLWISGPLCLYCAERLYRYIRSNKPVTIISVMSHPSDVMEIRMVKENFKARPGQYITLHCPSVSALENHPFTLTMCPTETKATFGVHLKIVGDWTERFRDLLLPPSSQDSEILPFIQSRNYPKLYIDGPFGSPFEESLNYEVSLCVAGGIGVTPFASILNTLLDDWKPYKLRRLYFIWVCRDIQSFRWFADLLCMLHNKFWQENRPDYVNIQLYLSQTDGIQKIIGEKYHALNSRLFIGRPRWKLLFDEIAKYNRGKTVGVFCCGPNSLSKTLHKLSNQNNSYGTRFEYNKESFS
# T1 sequence (P13498 1-195 partner): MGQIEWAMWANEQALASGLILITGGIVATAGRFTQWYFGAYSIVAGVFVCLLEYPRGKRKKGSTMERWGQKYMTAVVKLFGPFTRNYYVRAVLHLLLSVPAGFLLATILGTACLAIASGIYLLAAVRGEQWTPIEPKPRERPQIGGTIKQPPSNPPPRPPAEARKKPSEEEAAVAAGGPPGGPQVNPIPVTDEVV
# Test: Amplex Red activity assay (cellular H2O2 formation in hNOX4 T-REx-293 cells)
# Type: cell-based
# Conditions: tet-induced 24 h, extracellular H2O2 by Amplex Red, 60 min 25° C., geometric mean if determined several times
# Procedure: The nucleotide sequence and the amino acid sequence for the human NOX4 (Entrez Gene ID 50507) is known in the art and are published. The potency and efficacy of the compounds of Formula (I) are assessed for their potential to inhibit the formation of ROS in a cellular assay.
# The full-length human NOX4 (NM_016931.3) transcript was cloned into the pDONR™221 vector (Life Technologies™) in order to generate, by site-specific integration according to the recommendation of the manufacturer (Life Technologies™), a recombinant pJTI™ R4 DEST CMV-TO vector containing the NOX4 coding information controlled by tetracycline (tet) responsive tet-on cytomegalovirus promoter (hNOX4 pDEST).
# Modified human embryonic kidney cells overexpressing a tet receptor (Jump-In™ T-REx™ HEK293; Life Technologies™) were transfected with the NOX4-containing tet-on vector (hNOX4 pDEST) to generate a stable recombinant cell pool (hNOX4 T-REx-293). hNOX4 T-REx-293 cells were cultured in DMEM containing 4.5 g/L glucose supplemented with 10% fetal calf serum, penicillin (100 U/mL), streptomycin (100 μg/mL), geneticin (1 mg/mL), and blasticidin (5 μg/mL) at 37° C. in air with 5% CO2. Human Nox4 expression was induced with tet (1 μg/mL) for 24 h and extracellular H2O2 was quantified using the Amplex Red reagent (Life Technologies™).
# Compounds were prepared as 10 mM stock solution in DMSO vehicle, then diluted in 384-well plates using DMSO followed by a transfer of the dilutions into the assay plate. As a control, diphenylene iodonium was included at a final concentration of 10 μM. Compounds were tested at 10 concentrations in the range from 50 μM highest to 100 nM lowest.
# Cellular H2O2 formation was measured using the Amplex Red reagent. […] Cells were seeded into 384-well clear bottom plates at a density of 20 000 cells per well in presence or absence of compounds. […] All wells contained 1.25% of DMSO. The plates were kept at 25° C. for 60 min. The amount of produced resorufin was detected with the Synergy™ Mx microplate reader (BioTek) with excitation and emission wavelengths set to 550 nm and 600 nm, respectively. Fluorescence was measured for each well and the fluorescence at 600 nm wavelength was compared to the fluorescence of the vehicle in place of compound. Inhibitory activities of example compounds were determined by calculating the IC50 value (the concentration of compound needed to inhibit 50% of the enzyme activity). The calculated IC50 values may fluctuate depending on the daily cellular assay performance. Fluctuations of this kind are known to those skilled in the art.
row,Structure (SMILES),IC50 [µM]
1,"O=C(Nc1ccc2oc(N3CCN(C4COC4)CC3)nc2c1)c1ccc2c(c1)CCO2 [Example 53, 2,3-Dihydro-benzofuran-5-carboxylic acid [2-(4-oxetan-3-yl-piperazin-1-yl)-benzooxazol-5-yl]-amide]",0.913
2,"CN(c1nc2cc(NC(=O)c3ccc4c(c3)CCO4)ccc2o1)C1CCN(C2COC2)CC1 [Example 54, 2,3-Dihydro-benzofuran-5-carboxylic acid {2-[methyl-(1-oxetan-3-yl-piperidin-4-yl)-amino]-benzooxazol-5-yl}-amide]",2.91
3,"O=C(Nc1ccc2oc(N3CCCC4(COC4)C3)nc2c1)c1ccc2c(c1)CCO2 [Example 55, 2,3-Dihydro-benzofuran-5-carboxylic acid [2-(2-oxa-6-aza-spiro[3.5]non-6-yl)-benzooxazol-5-yl]-amide]",0.4
4,"CN(CC1COC1)c1nc2cc(NC(=O)c3ccc4c(c3)CCO4)ccc2o1 [Example 56, 2,3-Dihydro-benzofuran-5-carboxylic acid [2-(methyl-oxetan-3-ylmethyl-amino)-benzooxazol-5-yl]-amide]",0.906
5,"CN(c1nc2cc(NC(=O)c3ccc4c(c3)CCO4)ccc2o1)C1COC1 [Example 57, 2,3-Dihydro-benzofuran-5-carboxylic acid [2-(methyl-oxetan-3-yl-amino)-benzooxazol-5-yl]-amide]",0.681
6,"COCC1CCCN1c1nc2cc(NC(=O)c3ccc4c(c3)CCO4)ccc2o1 (centres unmarked) [Example 58, 2,3-Dihydro-benzofuran-5-carboxylic acid [2-(2-methoxymethyl-pyirolidin-1-yl)-benzooxazol-5-yl]-amide]",1.33
7,"COC1CCCN(c2nc3cc(NC(=O)c4ccc5c(c4)CCO5)ccc3o2)C1 (centres unmarked) [Example 59, 2,3-Dihydro-benzofuran-5-carboxylic acid [2-(3-methoxy-piperidin-1-yl)-benzooxazol-5-yl]-amide]",0.731
8,"CN(C)CC1CCN(c2nc3cc(NC(=O)c4ccc5c(c4)CCO5)ccc3o2)C1 (centres unmarked) [Example 60, 2,3-Dihydro-benzofuran-5-carboxylic acid [2-(3-dimethylaminomethyl-pyrrolidin-1-yl)-benzooxazol-5-yl]-amide]",1.67
9,"CN(C)CC1CCCN1c1nc2cc(NC(=O)c3ccc4c(c3)CCO4)ccc2o1 (centres unmarked) [Example 61, 2,3-Dihydro-benzofuran-5-carboxylic acid [2-(2-dimethylaminomethyl-pyrrolidin-1-yl)-benzooxazol-5-yl]-amide]",5.24
10,"O=C(Nc1ccc2oc(N(C3CC3)C3COC3)nc2c1)c1ccc2c(c1)CCO2 [Example 63, 2,3-Dihydro-benzofuran-5-carboxylic acid [2-(cyclopropyl-oxetan-3-yl-amino)-benzooxazol-5-yl]-amide]",0.359
11,"O=C(Nc1ccc2oc(N3CC(N4CCCC4)C3)nc2c1)c1ccc2c(c1)CCO2 [Example 64, 2,3-Dihydro-benzofuran-5-carboxylic acid [2-(3-pyrrolidin-1-yl-azetidin-1-yl)-benzooxazol-5-yl]-amide]",2.13
12,"CC(C)(O)C1CN(c2nc3cc(NC(=O)c4ccc5c(c4)CCO5)ccc3o2)C1 [Example 65, 2,3-Dihydro-benzofuran-5-carboxylic acid {2-[3-(1-hydroxy-1-methyl-ethyl)-azetidin-1-yl]-benzooxazol-5-yl}-amide]",0.851

# More lines, now with the values ahead:
row,IC50 [µM],Structure (SMILES)
1,4.17,"CN(C)CC1CN(c2nc3cc(NC(=O)c4ccc5c(c4)CCO5)ccc3o2)C1 [Example 66, 2,3-Dihydro-benzofuran-5-carboxylic acid [2-(3-dimethylaminomethyl-azetidin-1-yl)-benzooxazol-5-yl]-amide]"
2,3.08,"CN1CCC2(CC1)CCN2c1nc2cc(NC(=O)c3ccc4c(c3)CCO4)ccc2o1 [Example 67, 2,3-Dihydro-benzofuran-5-carboxylic acid [2-(7-methyl-1,7-diaza-spiro[3.5]non-1-yl)-benzooxazol-5-yl]-amide]"
3,1.79,"CN1CCC2(CC1)CN(c1nc3cc(NC(=O)c4ccc5c(c4)CCO5)ccc3o1)C2 [Example 68, 2,3-Dihydro-benzofuran-5-carboxylic acid [2-(7-methyl-2,7-diaza-spiro[3.5]non-2-yl)-benzooxazol-5-yl]-amide]"
4,1.93,"CN(C)C1CN(c2nc3cc(NC(=O)c4ccc5c(c4)CCO5)ccc3o2)C1 [Example 69, 2,3-Dihydro-benzofuran-5-carboxylic acid [2-(3-dimethylamino-azetidin-1-yl)-benzooxazol-5-yl]-amide]"
5,0.889,"O=C(Nc1ccc2oc(N3CC4(C3)CS(=O)(=O)C4)nc2c1)c1ccc2c(c1)CCO2 [Example 70, 2,3-Dihydro-benzofuran-5-carboxylic acid [2-(2,2-dioxo-2l6-thia-6-aza-spiro[3.3]hept-6-yl)-benzooxazol-5-yl]-amide]"
6,0.336,"O=C(Nc1ccc2oc(N3CCC34CCOC4)nc2c1)c1ccc2c(c1)CCO2 (centres unmarked) [Example 71, 2,3-Dihydro-benzofuran-5-carboxylic acid [2-(6-oxa-1-aza-spiro[3.4]oct-1-yl)-benzooxazol-5-yl]-amide]"
7,0.524,"O=C(Nc1ccc2oc(N3CC4(CCS4(=O)=O)C3)nc2c1)c1ccc2c(c1)CCO2 [Example 72, 2,3-Dihydro-benzofuran-5-carboxylic acid [2(1,1-dioxo-1l6-thia-6-aza-spiro[3.3]hept-6-yl)-benzooxazol-5-yl]-amide]"
8,4.1,"CN(C)C1(C)CN(c2nc3cc(NC(=O)c4ccc5c(c4)CCO5)ccc3o2)C1 [Example 73, 2,3-Dihydro-benzofuran-5-carboxylic acid [2-(3-dimethylamino-3-methyl-azetidin-1-yl)-benzooxazol-5-yl]-amide]"
9,1.08,"O=C(Nc1ccc2oc(N3CC4(CCOC4)C3)nc2c1)c1ccc2c(c1)CCO2 [Example 74, 2,3-Dihydro-benzofuran-5-carboxylic acid [2-(6-oxa-2-aza-spiro[3.4]oct-2-yl)-benzooxazol-5-yl]-amide]"
10,0.421,"CN1CCN(c2nc3cc(C(=O)Nc4ccc5c(c4)CCO5)ccc3o2)CC1 [Example 75, 2-(4-Methyl-piperazin-1-yl)-benzooxazole-5-carboxylic acid (2,3-dihydro-benzofuran-5-yl)-amide]"
11,0.414,"O=C(Nc1ccc2c(c1)CCO2)c1ccc2oc(N3CCCCC3)nc2c1 [Example 76, 2-Piperidin-1-yl-benzooxazole-5-carboxylic acid (2,3-dihydro-benzofuran-5-yl)-amide]"
12,0.548,"O=C(Nc1ccc2c(c1)CCO2)c1ccc2oc(N3CCOCC3)nc2c1 [Example 77, 2-Morpholin-4-yl-benzooxazole-5-carboxylic acid (2,3-dihydro-benzofuran-5-yl)-amide]"
13,0.417,"CCN(CC)c1nc2cc(C(=O)Nc3ccc4c(c3)CCO4)ccc2o1 [Example 78, 2-Diethylamino-benzooxazole-5-carboxylic acid (2,3-dihydro-benzofuran-5-yl)-amide]"
14,0.585,"O=C(Nc1ccc2c(c1)CCO2)c1ccc2oc(N3CCCC3)nc2c1 [Example 79, 2-Pyrrolidin-1-yl-benzooxazole-5-carboxylic acid (2,3-dihydro-benzofuran-5-yl)-amide]"
